In brackets after ≈: the same amount, converted by molar mass. Where two headings read alike, the source gives them in different places.
Assays:
Type in all cases: cell-based
Aspergillus niger = assay: Agar-plate minimum inhibitory concentration (Example 12); details: agar, 72-120 hours, read-out: Minimum Inhibitory Concentration
Method: (§1) The test compound was added to molten agar as a solution (when conveniently soluble in a solvent such as dimethylformamide) or a suspension forming a mixture having a concentration of 0.05 percent (500 ppm). The mixture was stirred and poured into plates to harden. When hardened, the plates were inoculated with various bacteria and fungi. The bacteria-inoculated plates were incubated at 37° C. for 24 hours, while the fungi-inoculated plates were incubated for about 72-120 hours. Following incubation, the plates were examined for growth or inhibition of the respective organisms.
(§2) After the initial readings, compounds showing sufficient activity were re-tested at various concentrations to determine the minimum inhibitory concentration (in ppm) of the compounds of the invention against the various bacteria and fungi tested.

Bacillus subtilis = assay: as above; details: agar, 37° C., 24 hours, read-out: Minimum Inhibitory Concentration
Method: as §1, §2

Candida albicans = assay: as above; details: agar, 72-120 hours, read-out: Minimum Inhibitory Concentration
Method: as §1, §2

Candida pelliculosa = assay: as above; details: Hansenula anomala; Candida pelliculosa; agar, 72-120 hours; read-out: Minimum Inhibitory Concentration
Method: as §1, §2

Ceratocystis ips = assay: as above; details: Ceratocystis ips; agar, 72-120 hours; read-out: Minimum Inhibitory Concentration
Method: as §1, §2

Salmonella typhosa = assay: as above; details: Salmonella enterica; Salmonella typhosa; agar, 37° C., 24 hours; read-out: Minimum Inhibitory Concentration
Method: as §1, §2

Streptococcus mutans = assay: as above; details: agar, 37° C., 24 hours, read-out: Minimum Inhibitory Concentration
Method: as §1, §2

[1] = tested on: Trichophyton mentagrophytes; assay: as above; details: agar, 72-120 hours, read-out: Minimum Inhibitory Concentration
Method: as §1, §2

[2] = tested on: Enterobacter aerogenes ATCC 13048; assay: Minimum inhibitory concentration, urinary tract organisms (Example 13); details: Klebsiella aerogenes
Method: as §1, §2
(§3) Following a procedure substantially the same as that described in Example 12, the minimum inhibitory concentration for the compounds described herein was determined for various organisms representative of those commonly associated with urinary tract infections.
(§4) The organisms used in this procedure and the abbreviations designated in Table 3 are as follows: […]

[3] = tested on: Escherichia coli ATCC 11229; assay: as above
Method: as §1, §2, §3, §4

[4] = tested on: Escherichia coli ATCC 25922; assay: as above
Method: as §1, §2, §3, §4

[5] = tested on: Escherichia coli ATCC 4157; assay: as above
Method: as §1, §2, §3, §4

[6] = tested on: Escherichia coli ATCC 9723; assay: as above
Method: as §1, §2, §3, §4

[7] = tested on: Klebsiella pneumoniae ATCC 23357; assay: as above
Method: as §1, §2, §3, §4

[8] = tested on: Klebsiella pneumoniae M-1; assay: as above
Method: as §1, §2, §3, §4

[9] = tested on: Klebsiella pneumoniae M-2; assay: as above
Method: as §1, §2, §3, §4

[10] = tested on: Klebsiella pneumoniae M-6; assay: as above
Method: as §1, §2, §3, §4

Proteus mirabilis 470/1 = assay: as above
Method: as §1, §2, §3, §4

[11] = tested on: Pseudomonas aeruginosa ATCC 10145; assay: as above
Method: as §1, §2, §3, §4

[12] = tested on: Pseudomonas aeruginosa ATCC 27853; assay: as above
Method: as §1, §2, §3, §4

[13] = tested on: Pseudomonas aeruginosa ATCC 7700; assay: as above
Method: as §1, §2, §3, §4

[14] = tested on: Pseudomonas aeruginosa PRD-10; assay: as above
Method: as §1, §2, §3, §4

Serratia marcescens M-1 = assay: as above
Method: as §1, §2, §3, §4

[15] = tested on: Staphylococcus aureus ATCC 25923; assay: as above
Method: as §1, §2, §3, §4

[16] = ATCC13048, Ea 13048, read-out: Minimum Inhibitory Concentration
[17] = ATCC11229, Ec 11229, read-out: Minimum Inhibitory Concentration
[18] = ATCC25922, Ec 25922, read-out: Minimum Inhibitory Concentration
[19] = ATCC4157, Ec 4157, read-out: Minimum Inhibitory Concentration
[20] = ATCC9723, Ec 9723, read-out: Minimum Inhibitory Concentration
[21] = ATCC23357, Kp 23357, read-out: Minimum Inhibitory Concentration
[22] = M1, Kp M-1, read-out: Minimum Inhibitory Concentration
[23] = M2, Kp M-2, read-out: Minimum Inhibitory Concentration
[24] = M6, Kp M-6, read-out: Minimum Inhibitory Concentration
[25] = Pm 470/1, read-out: Minimum Inhibitory Concentration
[26] = ATCC10145, Pa 10145, read-out: Minimum Inhibitory Concentration
[27] = ATCC27853, Pa 27853, read-out: Minimum Inhibitory Concentration
[28] = ATCC7700, Pa 7700, read-out: Minimum Inhibitory Concentration
[29] = PRD10, Pa PRD-10, read-out: Minimum Inhibitory Concentration
[30] = M1, Sr M-1, read-out: Minimum Inhibitory Concentration
[31] = ATCC25923, Sa 25923, read-out: Minimum Inhibitory Concentration
[32] = M1, read-out: Minimum Inhibitory Concentration

Row | SMILES | MIC (Aspergillus niger) | MIC (Bacillus subtilis) | MIC (Candida albicans) | MIC (Candida pelliculosa) | MIC (Ceratocystis ips) | MIC [2, 16] | MIC [3, 17] | MIC [4, 18] | MIC [5, 19] | MIC [6, 20] | MIC [7, 21] | MIC [8, 22] | MIC [9, 23] | MIC [10, 24] | MIC (Proteus mirabilis 470/1; [25]) | MIC [12, 27] | MIC [13, 28] | MIC [14, 29] | MIC (Serratia marcescens M-1; [30]) | MIC [15, 31] | further results
1 | CCOC(=O)CNC(=O)Oc1ccc(Cl)c2cccnc12 [Example 1, Ethyl N-(((5-chloro-8-quinolinyl)oxy)-carbonyl)glycinate] | 10 µg/mL (≈ 32.4 µM) | 10 µg/mL (≈ 32.4 µM) | 10 µg/mL (≈ 32.4 µM) | 10 µg/mL (≈ 32.4 µM) | 50 µg/mL (≈ 162 µM) | 50 µg/mL (≈ 162 µM) | 25 µg/mL (≈ 81 µM) | 25 µg/mL (≈ 81 µM) | 25 µg/mL (≈ 81 µM) | 25 µg/mL (≈ 81 µM) | 25 µg/mL (≈ 81 µM) | 50 µg/mL (≈ 162 µM) | 50 µg/mL (≈ 162 µM) | 25 µg/mL (≈ 81 µM) | 50 µg/mL (≈ 162 µM) | 100 µg/mL (≈ 324 µM) | 100 µg/mL (≈ 324 µM) | 100 µg/mL (≈ 324 µM) | 50 µg/mL (≈ 162 µM) | ≤ 5 µg/mL | MIC (Salmonella typhosa): 50 µg/mL (≈ 162 µM); MIC (Streptococcus mutans): 100 µg/mL (≈ 324 µM); MIC [1]: 10 µg/mL (≈ 32.4 µM); MIC [11, 26]: 25 µg/mL (≈ 81 µM)
2 | CCOC(=O)CNC(=O)Oc1c(Br)cc(Br)c2cccnc12 [Example 2, Ethyl N-(((5,7-dibromo-8-quinolinyl)oxy)carbonyl)glycinate] | 50 µg/mL (≈ 116 µM) | 0.5 µg/mL (≈ 1.16 µM) | 50 µg/mL (≈ 116 µM) | 10 µg/mL (≈ 23.1 µM) | 50 µg/mL (≈ 116 µM) | 75 µg/mL (≈ 174 µM) | 25 µg/mL (≈ 57.9 µM) | 25 µg/mL (≈ 57.9 µM) | 25 µg/mL (≈ 57.9 µM) | 25 µg/mL (≈ 57.9 µM) | 250 µg/mL (≈ 579 µM) | 50 µg/mL (≈ 116 µM) | 25 µg/mL (≈ 57.9 µM) | 25 µg/mL (≈ 57.9 µM) | 25 µg/mL (≈ 57.9 µM) | 75 µg/mL (≈ 174 µM) | 250 µg/mL (≈ 579 µM) | 75 µg/mL (≈ 174 µM) | 250 µg/mL (≈ 579 µM) | 25 µg/mL (≈ 57.9 µM) | MIC (Salmonella typhosa): 50 µg/mL (≈ 116 µM); MIC (Streptococcus mutans): 50 µg/mL (≈ 116 µM); MIC [1]: 50 µg/mL (≈ 116 µM); MIC [11, 26]: 25 µg/mL (≈ 57.9 µM)
3 | CCOC(=O)CNC(=O)Oc1cccc2ccc(C)nc12 [Example 3, Ethyl N-(((2-methyl-8-quinolinyl)oxy)carbonyl)glycinate] | 500 µg/mL (≈ 1730 µM) | 10 µg/mL (≈ 34.7 µM) | 500 µg/mL (≈ 1730 µM) | 500 µg/mL (≈ 1730 µM) | 500 µg/mL (≈ 1730 µM) | 250 µg/mL (≈ 867 µM) | 75 µg/mL (≈ 260 µM) | 75 µg/mL (≈ 260 µM) | 100 µg/mL (≈ 347 µM) | 100 µg/mL (≈ 347 µM) | 250 µg/mL (≈ 867 µM) | 250 µg/mL (≈ 867 µM) | 250 µg/mL (≈ 867 µM) | 250 µg/mL (≈ 867 µM) | 250 µg/mL (≈ 867 µM) | > 1000 µg/mL | > 1000 µg/mL | > 1000 µg/mL | 750 µg/mL (≈ 2600 µM) | 25 µg/mL (≈ 86.7 µM) | MIC (Salmonella typhosa): 50 µg/mL (≈ 173 µM); MIC (Streptococcus mutans): 500 µg/mL (≈ 1730 µM); MIC [1]: 500 µg/mL (≈ 1730 µM); MIC [11, 26]: 250 µg/mL (≈ 867 µM)
4 | CCOC(=O)CNC(=O)Oc1c(Cl)cc(Cl)c2cccnc12 [Example 4, Ethyl N-(((5,7-dichloro-8-quinolinyl)oxy)carbonyl)glycinate] | 10 µg/mL (≈ 29.1 µM) | 1 µg/mL (≈ 2.91 µM) | 10 µg/mL (≈ 29.1 µM) | 5 µg/mL (≈ 14.6 µM) | 50 µg/mL (≈ 146 µM) | 25 µg/mL (≈ 72.9 µM) | 10 µg/mL (≈ 29.1 µM) | 10 µg/mL (≈ 29.1 µM) | 10 µg/mL (≈ 29.1 µM) | 10 µg/mL (≈ 29.1 µM) | 25 µg/mL (≈ 72.9 µM) | 25 µg/mL (≈ 72.9 µM) | 25 µg/mL (≈ 72.9 µM) | 25 µg/mL (≈ 72.9 µM) | 10 µg/mL (≈ 29.1 µM) | 50 µg/mL (≈ 146 µM) | 50 µg/mL (≈ 146 µM) | 50 µg/mL (≈ 146 µM) | 25 µg/mL (≈ 72.9 µM) | 10 µg/mL (≈ 29.1 µM) | MIC (Salmonella typhosa): 10 µg/mL (≈ 29.1 µM); MIC (Streptococcus mutans): 500 µg/mL (≈ 1460 µM); MIC [1]: 10 µg/mL (≈ 29.1 µM); MIC [11, 26]: 10 µg/mL (≈ 29.1 µM)
5 | O=C(NCCCl)Oc1ccc(Cl)c2cccnc12 [Example 6, 5-Chloro-8-quinolinyl N-(2-chloroethyl)carbamate] |  |  |  |  |  | 500 µg/mL (≈ 1750 µM) | 75 µg/mL (≈ 263 µM) | 75 µg/mL (≈ 263 µM) | 250 µg/mL (≈ 877 µM) | 50 µg/mL (≈ 175 µM) | 250 µg/mL (≈ 877 µM) | 250 µg/mL (≈ 877 µM) | 500 µg/mL (≈ 1750 µM) | 250 µg/mL (≈ 877 µM) | 250 µg/mL (≈ 877 µM) | 500 µg/mL (≈ 1750 µM) | 500 µg/mL (≈ 1750 µM) | 500 µg/mL (≈ 1750 µM) | 500 µg/mL (≈ 1750 µM) | < 5 µg/mL | 
6 | CNC(=O)Oc1c(Br)cc(Br)c2cccnc12 [Example 11, 5,7-Dibromo-8-quinolinyl N-methylcarbamate] |  |  |  |  |  |  |  |  |  |  |  |  |  |  |  |  |  |  |  |  | MIC ([2]; ATCC13048, read-out: Minimum Inhibitory Concentration): 25 µg/mL (≈ 69.4 µM); MIC ([3]; ATCC11229, read-out: Minimum Inhibitory Concentration): 25 µg/mL (≈ 69.4 µM); MIC ([4]; ATCC25922, read-out: Minimum Inhibitory Concentration): 25 µg/mL (≈ 69.4 µM); MIC ([5]; ATCC4157, read-out: Minimum Inhibitory Concentration): 25 µg/mL (≈ 69.4 µM); MIC ([6]; ATCC9723, read-out: Minimum Inhibitory Concentration): 25 µg/mL (≈ 69.4 µM); MIC ([7]; ATCC23357, read-out: Minimum Inhibitory Concentration): 25 µg/mL (≈ 69.4 µM); MIC [8, 32]: 25 µg/mL (≈ 69.4 µM); MIC ([9]; M2, read-out: Minimum Inhibitory Concentration): 25 µg/mL (≈ 69.4 µM); MIC ([10]; M6, read-out: Minimum Inhibitory Concentration): 25 µg/mL (≈ 69.4 µM); MIC (Proteus mirabilis 470/1; 470/1, read-out: Minimum Inhibitory Concentration): 25 µg/mL (≈ 69.4 µM); MIC ([11]; ATCC10145, read-out: Minimum Inhibitory Concentration): 25 µg/mL (≈ 69.4 µM); MIC ([12]; ATCC27853, read-out: Minimum Inhibitory Concentration): 100 µg/mL (≈ 278 µM); MIC ([13]; ATCC7700, read-out: Minimum Inhibitory Concentration): 100 µg/mL (≈ 278 µM); MIC ([14]; PRD10, read-out: Minimum Inhibitory Concentration): 100 µg/mL (≈ 278 µM); MIC (Serratia marcescens M-1; [32]): 50 µg/mL (≈ 139 µM); MIC ([15]; ATCC25923, read-out: Minimum Inhibitory Concentration): 25 µg/mL (≈ 69.4 µM)
